We go through 28 compounds from US12097261B2, “CDK2 degraders and uses thereof” (Kymera Therapeutics, Inc., priority 2021, dated 2024).

Test [1] deals with T1, CDK2 (Homo sapiens, UniProt P24941).
T1 construct: endogenous in cells; host or cells: OVCAR-8
In words: CDK2 degradation by immunoblotting in OVCAR-8 cells. It is filed as cell-based. As to conditions: for DC50: 24 h. On the procedure:
(§1) CDK2 and CDK1 Degradation by Immunoblotting
(§2) Ovarian cancer cell line OVCAR-8 were cultured in 12-well plates in complete growth medium. A serial dilution of each compound was added to individual wells from a 2× stock solution, and cells were cultured for 24 hours. Cells were collected by centrifugation, and cell pellets lysed with addition of chilled RIPA buffer supplemented with protease/phosphatase inhibitors followed by incubation for 20 minutes on ice. Lysates were clarified by centrifugation and 5×SDS loading buffer was added to the supernatant followed by heating to 100° C. for 10 minutes. An aliquot of the samples were separated by SDS-PAGE and transferred to a nitrocellulose membrane. Immunoblotting was performed according to standard procedures using anti-CDK2 primary antibody (Abcam ab32147) at 1:1000 dilution and IRDye 800CW goat anti-Rabbit secondary antibody (LICOR) and imaged using a LICOR Odyssey instrument. Blots were stained with anti-beta-Actin primary antibody (Cell Signaling Technology mAb #4970) for normalization. The normalized CDK2/Actin values were calculated as a percent of DMSO treated cells and plotted to determine the concentration at which 50% of CDK2 signal is decreased (DC50). The determination of CDK1 degradation was determined similarly using anti-CDK1 primary antibody (Abcam ab131450).

Test [2] addresses T2, CDK1 (Homo sapiens, UniProt P06493).
T2 construct: endogenous in cells; host or cells: OVCAR-8
Briefly: CDK1 degradation by immunoblotting in OVCAR-8 cells. It is filed as cell-based. The settings on record: 24 h. On the procedure:
as §1, §2

T2 sequence (P06493 whole entry): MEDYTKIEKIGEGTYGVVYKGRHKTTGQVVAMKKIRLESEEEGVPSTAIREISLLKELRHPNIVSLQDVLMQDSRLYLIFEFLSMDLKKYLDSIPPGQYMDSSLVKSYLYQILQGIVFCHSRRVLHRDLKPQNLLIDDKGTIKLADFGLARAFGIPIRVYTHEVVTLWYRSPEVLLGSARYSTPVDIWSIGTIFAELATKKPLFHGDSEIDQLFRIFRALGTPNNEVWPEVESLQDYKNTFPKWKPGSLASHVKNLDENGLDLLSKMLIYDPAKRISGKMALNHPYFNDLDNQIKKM

Regarding `CC(C)NC(=O)O[C@H]1CC[C@@H](c2cc(NC(=O)c3ccnn3CCOCCOCCOCCOCCCc3ccc4c(c3)n(C)c(=O)n4C3CCC(=O)NC3=O)n[nH]2)C1` (some centres unmarked) [I-149], the DC50 was 10 to 100 nM in test [1] and over 5000 nM in test [2].
Take `Cc1cc(S(=O)(=O)NCCOCCOCCCc2ccc3c(c2)n(C)c(=O)n3C2CCC(=O)NC2=O)ccc1Nc1ncc2cc(C(F)F)c(=O)n([C@@H]3CCC[C@@]3(C)O)c2n1` (some centres unmarked) [I-5]: the DC50 was under 10 nM in test [1] and over 5000 nM in test [2].
For `C[C@@]1(O)CCC[C@H]1n1c(=O)c(C(F)F)cc2cnc(NC3CCN(C(=O)CCCCCCCNc4cccc5c4C(=O)N(C4CCC(=O)NC4=O)C5=O)CC3)nc21` (some centres unmarked) [I-28], the “CDK2 DC50, (OVCAR-8, 24 h)” value in test [1] was “inactive”.
The same measure, in the same setting: the same measure for `CC(C)NC(=O)O[C@@H]1CC[C@H](c2cc(NC(=O)Cc3cnn(C4CCC(CN(C)C5CCN(Cc6cccc7c6n(C)c(=O)n7C6CCC(=O)NC6=O)CC5)CC4)c3)n[nH]2)C1` (some centres unmarked) [I-93]: “inactive”; for `C[C@@]1(O)CCC[C@H]1n1c(=O)c(C(F)F)cc2cnc(NC3CCN(C(=O)COCCOCCOCCOCCNc4cccc5c4C(=O)N(C4CCC(=O)NC4=O)C5=O)CC3)nc21` (some centres unmarked) [I-24]: “inactive”.
`Cn1c(=O)n(C2CCC(=O)NC2=O)c2cccc(CCCOCCOCCOCCOCC(=O)N3CCC(Nc4ncc5cc(C(F)F)c(=O)n([C@@H]6CCC[C@@]6(C)O)c5n4)CC3)c21` (stereo partly drawn) [I-21, 3-(4-(1-(4-((6-(Difluoromethyl)-8-((1R,2R)-2-hydroxy-2-methylcyclopentyl)-7-oxo-7,8-dihydropyrido[2,3-d]pyrimidin-2-yl)amino)piperidin-1-yl)-1-oxo-3,6,9,12-tetraoxapentadecan-15-yl)-3-methyl-2-oxo-2,3-dihydro-1H-benzo[d]imidazol-1-yl)piperidine-2,6-dione]: the “CDK2 DC50, (OVCAR-8, 24 h)” value in test [1] is “inactive”.
As to `CC(C)NC(=O)O[C@@H]1CC[C@H](c2cc(NC(=O)c3cnn(CCCCCCCCCC#Cc4cccn5c(N6CCC(=O)NC6=O)cnc45)c3)n[nH]2)C1` [I-68], the results for the DC50 in test [1] and in test [2] were 10 to 100 nM and over 5000 nM, respectively.
For `CC(C)NC(=O)O[C@@H]1CC[C@H](c2cc(NC(=O)c3cnn(CCCCCCCCCc4cccc5c4n(C)c(=O)n5C4CCC(=O)NC4=O)c3)[nH]n2)C1` (some centres unmarked) [I-92] the same measures were 10 to 100 nM and 1000 to 5000 nM.
For `CC(C)NC(=O)O[C@@H]1CC[C@H](c2cc(NC(=O)c3ccnn3CCOCCOCCOCCOCCCc3cccc4c3n(C)c(=O)n4C3CCC(=O)NC3=O)n[nH]2)C1` (some centres unmarked) [I-55], the DC50 in test [1] was 10 to 100 nM; in test [2], over 5000 nM.
With `Cn1c(=O)n(C2CCC(=O)NC2=O)c2ccc(CCCCCCCCCCCC(=O)N3CCC(Nc4ncc5cc(C(F)F)c(=O)n([C@@H]6CCC[C@@]6(C)O)c5n4)CC3)cc21` (some centres unmarked) [I-25], in test [1], the “CDK2 DC50, (OVCAR-8, 24 h)” value is “inactive”.
For `CC(C)NC(=O)O[C@@H]1CC[C@H](c2cc(NC(=O)c3cnn(CCCCCCCCCc4ccc5c(c4)n(C)c(=O)n5C4CCC(=O)NC4=O)c3)n[nH]2)C1` (some centres unmarked) [I-91], the DC50 in test [1] is 10 to 100 nM; in test [2], over 5000 nM.
Taken in the same sequence, the figures for `CC(C)NC(=O)O[C@@H]1CC[C@H](c2cc(CC(=O)c3cnn(CCOCCOCCOCCCc4ccc5c(N6CCC(=O)NC6=O)cncc5c4)c3)[nH]n2)C1` [I-73] were 100 to 1000 nM and over 5000 nM.
Taken in the same sequence, the figures for `Cc1cc(S(=O)(=O)NCCOCCOCCOCCOCCCc2ccc3c(c2)n(C)c(=O)n3C2CCC(=O)NC2=O)ccc1Nc1ncc2cc(C(F)F)c(=O)n([C@@H]3CCC[C@@]3(C)O)c2n1` (some centres unmarked) [I-7] were under 10 nM and over 5000 nM.
Taken in the same sequence, the figures for `Cc1cc(S(=O)(=O)NCCOCCOCCOCCOCCNc2cccc3c2C(=O)N(C2CCC(=O)NC2=O)C3=O)ccc1Nc1ncc2cc(C(F)F)c(=O)n([C@@H]3CCC[C@@]3(C)O)c2n1` (some centres unmarked) [I-17] were 10 to 100 nM and over 5000 nM.
`C[C@@]1(O)CCC[C@H]1n1c(=O)c(C(F)F)cc2cnc(NC3CCN(C(=O)COCCOCCNc4cccc5c4C(=O)N(C4CCC(=O)NC4=O)C5=O)CC3)nc21` (some centres unmarked) [I-27]: the “CDK2 DC50, (OVCAR-8, 24 h)” value in test [1] is “inactive”.
For `CC(C)NC(=O)O[C@@H]1CC[C@H](c2cc(NC(=O)c3cnn(CCOCCOCCOCCOCCCc4ccc5c(c4)n(C)c(=O)n5C4CCC(=O)NC4=O)c3)[nH]n2)C1` (some centres unmarked) [I-77], the results for the DC50 in test [1] and in test [2] were 100 to 1000 nM and over 5000 nM, respectively.
For `Cc1cc(S(=O)(=O)N[C@H]2CC[C@H](OCCOCCCc3ccc4c(c3)n(C)c(=O)n4C3CCC(=O)NC3=O)CC2)ccc1Nc1ncc2ccc(=O)n(C3CCCC3)c2n1` (some centres unmarked) [I-110] the same measures were under 10 nM and 1000 to 5000 nM.
As to `CC(C)NC(=O)O[C@@H]1CC[C@H](c2cc(NC(=O)c3cc(COCCCCCCCCCc4ccc5c(c4)n(C)c(=O)n5[C@H]4CCC(=O)NC4=O)nn3C)n[nH]2)C1` [I-99], the DC50 was under 10 nM in test [1] and over 5000 nM in test [2].
For the compound `CC(C)NC(=O)O[C@@H]1CC[C@H](c2cc(NC(=O)c3ccnn3CCCCCCCCCc3ccc4c(c3)n(C)c(=O)n4C3CCC(=O)NC3=O)n[nH]2)C1` (some centres unmarked) [I-87], the “CDK2 DC50, (OVCAR-8, 24 h)” value in test [1] is “inactive”.
On to `CC(C)NC(=O)O[C@@H]1CC[C@H](c2cc(NC(=O)c3ccnn3CCOCCOCCOCCCc3ccc4c(c3)n(C)c(=O)n4C3CCC(=O)NC3=O)[nH]n2)C1` (some centres unmarked) [I-83], for which the DC50 is 10 to 100 nM in test [1] and over 5000 nM in test [2].
With `CC(C)NC(=O)O[C@@H]1CC[C@H](c2cc(NC(=O)c3ccnn3CCCCCCCCCCCCc3cccc4c3n(C)c(=O)n4C3CCC(=O)NC3=O)n[nH]2)C1` (some centres unmarked) [I-89], the “CDK2 DC50, (OVCAR-8, 24 h)” value in test [1] is “inactive”.
Regarding `Cn1c(=O)n(C2CCC(=O)NC2=O)c2cccc(CCCCCCCCC(=O)N3CCC(Nc4ncc5cc(C(F)F)c(=O)n([C@@H]6CCC[C@@]6(C)O)c5n4)CC3)c21` (some centres unmarked) [I-23], in test [1], the “CDK2 DC50, (OVCAR-8, 24 h)” value was “inactive”.
Same read-out and setting: for `Cn1c(=O)n(C2CCC(=O)NC2=O)c2cccc(CCCCCCCCCCCC(=O)N3CCC(Nc4ncc5cc(C(F)F)c(=O)n([C@@H]6CCC[C@@]6(C)O)c5n4)CC3)c21` (some centres unmarked) [I-26] the value was “inactive”; for `Cn1c(=O)n(C2CCC(=O)NC2=O)c2ccc(CCCOCCOCCOCCOCC(=O)N3CCC(Nc4ncc5cc(C(F)F)c(=O)n([C@@H]6CCC[C@@]6(C)O)c5n4)CC3)cc21` (some centres unmarked) [I-20], “inactive”.
Still for that read-out and setting: the same measure for `Cn1c(=O)n(C2CCC(=O)NC2=O)c2ccc(CCCCCCCCC(=O)N3CCC(Nc4ncc5cc(C(F)F)c(=O)n([C@@H]6CCC[C@@]6(C)O)c5n4)CC3)cc21` (some centres unmarked) [I-22]: “inactive”.
The same measure, in the same setting: for `CC(C)NC(=O)O[C@@H]1CC[C@H](c2cc(NC(=O)c3cnn(CCOCCOCCCc4ccc5c(c4)n(C)c(=O)n5C4CCC(=O)NC4=O)c3)[nH]n2)C1` (some centres unmarked) [I-85] the value was “inactive”.
In the case of `CC(C)NC(=O)O[C@@H]1CC[C@H](c2cc(NC(=O)c3cnn(C4CCC(CN(C)C5CCN(Cc6cccc7c6n(C)c(=O)n7C6CCC(=O)NC6=O)CC5)CC4)c3)n[nH]2)C1` (stereo partly drawn) [I-84, (1R,3S)-3-(5-(1-(4-(((1-((1-(2,6-dioxopiperidin-3-yl)-3-methyl-2-oxo-2,3-dihydro-1H-benzo[d]imidazol-4-yl)methyl)piperidin-4-yl)(methyl)amino)methyl)cyclohexyl)-1H-pyrazole-4-carboxamido)-1H-pyrazol-3-yl)cyclopentyl isopropylcarbamate], the DC50 in test [1] is 1000 to 5000 nM.
As for `Cn1c(=O)n(C2CCC(=O)NC2=O)c2cccc(CCCOCCOCC(=O)N3CCC(Nc4ncc5cc(C(F)F)c(=O)n([C@@H]6CCC[C@@]6(C)O)c5n4)CC3)c21` (some centres unmarked) [I-29], in test [1], the “CDK2 DC50, (OVCAR-8, 24 h)” value is “inactive”.
